Where a name gives a salt, the structure may show the parent alone. Read-outs that look alike come from different tables or passages of the source.
Biological target: T1, Na+-dependent bile acid transport system (Oryctolagus cuniculus, UniProt Q28727)
T1 construct: brush-border membrane vesicles from the ileum of rabbits; from tissue; host or cells: terminal ileum of male New Zealand rabbits, brush-border membrane vesicles
T1 sequence (Q28727 1-347): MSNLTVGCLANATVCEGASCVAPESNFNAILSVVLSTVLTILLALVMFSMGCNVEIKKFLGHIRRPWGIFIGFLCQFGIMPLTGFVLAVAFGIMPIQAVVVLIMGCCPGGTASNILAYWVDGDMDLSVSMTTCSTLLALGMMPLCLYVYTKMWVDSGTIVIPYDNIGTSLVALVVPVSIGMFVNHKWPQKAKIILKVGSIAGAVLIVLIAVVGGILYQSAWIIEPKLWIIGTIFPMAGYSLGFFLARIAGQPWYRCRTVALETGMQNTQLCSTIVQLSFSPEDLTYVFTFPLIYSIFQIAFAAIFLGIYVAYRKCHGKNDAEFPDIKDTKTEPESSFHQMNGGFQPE
Experiment: Inhibition of Na+-dependent [3H]taurocholate absorption into brush-border membrane vesicles of the ileum
Assay type: biochemical, rabbit
Protocol: The preparation of brush-border membrane vesicles from the intestinal cells of the small intestine was carried out using the so-called Mg^2+ precipitation method. Male New Zealand rabbits (2-2.5 kg body weight) were sacrificed by intravenous injection of 0.5 ml of T-61^R. The small intestine was removed and rinsed with ice-cold physiological saline solution. The terminal 3/10 of the small intestine (measured in the oral-rectal direction, i.e. the terminal ileum, which contains the active Na^+ -dependent bile acid transport system) were used for preparation of the brush-border membrane vesicles. The intestines were frozen at -80° C. under nitrogen in plastic bags. The frozen intestines were thawed in a water bath at 30° C. in order to prepare the membrane vesicles. The mucosa was scraped off and suspended in 60 ml of ice-cold 12 mM trys/HCl buffer (pH 7.1)/300 mM mannitol, 5 mM EGTA/10 mg/l of phenylmethylsulfonyl fluoride/1 mg/l of soybean trypsin inhibitor (32 U/mg)/0.5 mg/l of bovine lung trypsin inhibitor (193 U/mg)/5 mg/l of bacitracin. After diluting to 300 ml with ice-cold distilled water, the suspension was homogenized with ice-cooling for 3 minutes at 75% of maximum power using an Ultraturrax (18 rod, IKA Werk Staufen, Federal Republic of Germany). After addition of 3 ml of 1M MgCl2 solution (final concentration 10 mM), the homogenate was allowed to stand at 0° C. for exactly 1 minute. As a result of addition of Mg^2+, the cell membranes aggregate and precipitate with the exception of the brush-border membranes. After centrifugation at 3,000×g (5,000 rpm, SS-34 rotor) for 15 minutes, the precipitate is discarded and the supernatant which contains the brush-border membranes is centrifuged at 26,700×g (15,000 rpm, SS-34 rotor) for 30 minutes. The supernatant was discarded, and the precipitate was rehomogenized in 60 ml of 12 mM tris/HCl buffer (pH 7.1)/60 mM mannitol, 5 mM EGTA using a Potter Elvejhem homogenizer (Braun Melsungen, 900 rpm, 10 strokes). After addition of 0.1 ml of 1M MgCl2 solution and an incubation time of 15 minutes at 0° C., the mixture was again centrifuged at 3,000×g for 15 minutes. The supernatant was then again centrifuged at […] (15,000 rpm, SS-34 rotor) for 30 minutes. The precipitate was taken up in 30 ml of 10 mM tris/hepes buffer (pH 7.4)/300 mM mannitol and homogeneously resuspended by 20 strokes in a Potter Elvejhem homogenizer at 1,000 rpm. After centrifugation at 48,000×g (20,000 rpm, SS-34 rotor) for 30 minutes, the precipitate was taken up in 0.5 to 2 ml of tris/hepes buffer (pH 7.4)/280 mM mannitol (final concentration 20 mg/ml) and resuspended with the aid of a tuberculin syringe using a 27 gauge needle. The vesicles were either used immediately after preparation for transport investigations or stored at -196° C. in liquid nitrogen in 4 mg portions.
The absorption of substrates into brush-border membrane vesicles was determined by means of the so-called membrane filtration technique. 10 μl of the vesicle suspension (100 μg of protein) were pipetted on the wall of a polystyrene incubation tube (11×70 mm) as a drop which contained the incubation medium together with the corresponding ligands (90 μl ). […] The incubation medium was filtered through a polyvinylidene fluoride membrane filter (SYHV LO 4NS, 0.45 μm, 4 mm .phi., Millipore, Eschborn, Federal Republic of Germany). The transport measurement was begun by mixing the vesicles with the incubation medium. […] After the desired incubation time (customarily 1 min), the transport was stopped by addition of 1 ml of ice-cold stop solution (10 mM tris/hepes, (pH 7.4)/150 mM KCl). The resulting mixture was immediately filtered off with suction in a vacuum of 25 to 35 mbar through a membrane filter made of cellulose nitrate (ME 25, 0.45 μm, 25 mm diameter, Schleicher & Schuell, Dassell, Federal Republic of Germany). The filter was subsequently washed with 5 ml of ice-cold Stop solution.

[1] = Na+-dependent transport component, 50 μM taurocholate

| Compound | IC50 [µM] | IC25 [1] [µM] | IC75 [1] [µM] | IC25 [µM] | IC75 [µM] | IC50 (read-out: IC50) [µM] |
| --- | --- | --- | --- | --- | --- | --- |
| C[C@H](CCC(=O)O)[C@H]1CC[C@H]2[C@@H]3[C@H](O)C[C@@H]4C[C@@H](OCCNC(=O)CCCc5ccc(N(CCCl)CCCl)cc5)CC[C@]4(C)[C@H]3C[C@H](O)[C@]12C [Example 66] | 86.5 | 60 | 148 |  |  |  |
| C[C@H](CCC(=O)NCC(=O)O)[C@H]1CC[C@H]2[C@@H]3[C@H](O)C[C@@H]4C[C@@H](OCCNC(=O)CCCc5ccc(N(CCCl)CCCl)cc5)CC[C@]4(C)[C@H]3C[C@H](O)[C@]12C [Example 68] | 89 | 60 | 250 |  |  |  |
| CC(C)c1cc(-c2ccc(F)cc2)c(OC[C@@H](O)C[C@@H](O)CC(=O)NCCO[C@H]2CC[C@@]3(C)[C@@H](C2)C[C@@H](O)[C@@H]2[C@@H]3C[C@H](O)[C@]3(C)[C@@H]([C@H](C)CCC(=O)O)CC[C@@H]23)c(C(C)C)c1 [Example 81] |  |  |  | 15 | 64 | 38 |
| CC(C)c1cc(-c2ccc(F)cc2)c(OC[C@@H](O)C[C@@H](O)CC(=O)NCCCO[C@H]2CC[C@@]3(C)[C@@H](C2)C[C@@H](O)[C@@H]2[C@@H]3C[C@H](O)[C@]3(C)[C@@H]([C@H](C)CCC(=O)O)CC[C@@H]23)c(C(C)C)c1 [Example 82 (Na salt)] |  |  |  | 17 | 80 | 48 |
| CC(C)c1nc(-c2ccccc2)cc(-c2ccc(F)cc2)c1/C=C/[C@@H](O)C[C@@H](O)CC(=O)NCCO[C@H]1CC[C@@]2(C)[C@@H](C1)C[C@@H](O)[C@@H]1[C@@H]2C[C@H](O)[C@]2(C)[C@@H]([C@H](C)CCC(=O)O)CC[C@@H]12 [Example 85] |  |  |  | 18 | 64 | 43 |
| CC(C)c1nc(-c2ccccc2)cc(-c2ccc(F)cc2)c1/C=C/[C@@H](O)C[C@@H](O)CC(=O)NCCCO[C@H]1CC[C@@]2(C)[C@@H](C1)C[C@@H](O)[C@@H]1[C@@H]2C[C@H](O)[C@]2(C)[C@@H]([C@H](C)CCC(=O)O)CC[C@@H]12 [Example 86] |  |  |  | 14 | 87 | 62 |
| CC(C)c1nc(-c2ccccc2)cc(-c2ccc(F)cc2)c1/C=C/[C@@H](O)C[C@@H](O)CC(=O)NCCCO[C@@H]1CC[C@@]2(C)[C@@H](C1)C[C@@H](O)[C@@H]1[C@@H]2C[C@H](O)[C@]2(C)[C@@H]([C@H](C)CCC(=O)O)CC[C@@H]12 [Example 87] |  |  |  | 16 | 70 | 56 |
| Cc1cc(C(=C(/C=C/[C@@H](O)C[C@@H](O)CC(=O)NCCO[C@H]2CC[C@@]3(C)[C@@H](C2)C[C@@H](O)[C@@H]2[C@@H]3C[C@H](O)[C@]3(C)[C@@H]([C@H](C)CCC(=O)O)CC[C@@H]23)C(C)C)c2ccc(F)c(C)c2)ccc1F [Example 90] |  |  |  | 3.8 | 27 | 12 |
| CC(C)c1cc(Sc2ccc(F)cc2)cc(-c2ccc(F)cc2)c1OC[C@@H](O)C[C@@H](O)CC(=O)NCCO[C@H]1CC[C@@]2(C)[C@@H](C1)C[C@@H](O)[C@@H]1[C@@H]2C[C@H](O)[C@]2(C)[C@@H]([C@H](C)CCC(=O)O)CC[C@@H]12 [Example 93] |  |  |  | 3.2 | 23 | 8 |
| CC(C)c1cc(Sc2ccc(F)cc2)cc(-c2ccc(F)cc2)c1OC[C@@H](O)C[C@@H](O)CC(=O)NCCCO[C@H]1CC[C@@]2(C)[C@@H](C1)C[C@@H](O)[C@@H]1[C@@H]2C[C@H](O)[C@]2(C)[C@@H]([C@H](C)CCC(=O)O)CC[C@@H]12 [Example 94] |  |  |  | 4.5 | 24 | 13 |
| CC(C)c1cc(-c2ccc(F)cc2)c(OC[C@@H](O)C[C@@H](O)CC(=O)NCCO[C@H]2CC[C@@]3(C)[C@@H](C2)C[C@@H](O)[C@@H]2[C@@H]3C[C@H](O)[C@]3(C)[C@@H]([C@H](C)CCC(=O)NCC(=O)O)CC[C@@H]23)c(C(C)C)c1 [Example 101] |  |  |  | 19 | 68 | 40 |
| CC(C)c1nc(-c2ccccc2)cc(-c2ccc(F)cc2)c1/C=C/[C@@H](O)C[C@@H](O)CC(=O)NCCO[C@H]1CC[C@@]2(C)[C@@H](C1)C[C@@H](O)[C@@H]1[C@@H]2C[C@H](O)[C@]2(C)[C@@H]([C@H](C)CCC(=O)NCC(=O)O)CC[C@@H]12 [Example 105] |  |  |  | 11 | 45 | 22.5 |
| CC(C)c1cc(-c2ccc(F)cc2)c(OC[C@@H](O)C[C@@H](O)CC(=O)NCCO[C@H]2CC[C@@]3(C)[C@@H](C2)C[C@@H](O)[C@@H]2[C@@H]3C[C@H](O)[C@]3(C)[C@@H]([C@H](C)CCC(=O)NCCS(=O)(=O)O)CC[C@@H]23)c(C(C)C)c1 [Example 111] |  |  |  | 10 | 39 | 24 |
| CC(C)c1nc(-c2ccccc2)cc(-c2ccc(F)cc2)c1/C=C/[C@@H](O)C[C@@H](O)CC(=O)NCCO[C@H]1CC[C@@]2(C)[C@@H](C1)C[C@@H](O)[C@@H]1[C@@H]2C[C@H](O)[C@]2(C)[C@@H]([C@H](C)CCC(=O)NCCS(=O)(=O)O)CC[C@@H]12 [Example 115 (Na salt)] |  |  |  | 12 | 44 | 28 |
| COC(=O)CC[C@@H](C)[C@H]1CC[C@H]2[C@@H]3[C@H](O)C[C@@H]4C[C@@H](OCCNC(=O)[C@@H](C)NC(=O)[C@@H](C)NC(=O)OCc5ccccc5)CC[C@]4(C)[C@H]3C[C@H](O)[C@]12C [Example 119, Z-D-Ala-D-Ala-NH--(CH2)2 --GS--OCH3] |  |  |  | 48 |  | 134 |
| COC(=O)CC[C@@H](C)[C@H]1CC[C@H]2[C@@H]3[C@H](O)C[C@@H]4C[C@@H](OCCNC(=O)[C@@H](C)NC(=O)[C@@H](C)N)CC[C@]4(C)[C@H]3C[C@H](O)[C@]12C [Example 120, H-D-Ala-D-Ala-NH--(CH2)2 --GS--OCH3] |  |  |  | 38 | 178 | 87 |
| C[C@H](CCC(=O)O)[C@H]1CC[C@H]2[C@@H]3[C@H](O)C[C@@H]4C[C@@H](OCCNC(=O)[C@@H](C)NC(=O)[C@@H](C)N)CC[C@]4(C)[C@H]3C[C@H](O)[C@]12C [Example 121, H-D-Ala-D-Ala-NH--(CH2)2 --GS--OH] |  |  |  | 30 | 172 | 84 |
| C[C@H](CCC(=O)O)[C@H]1CC[C@H]2[C@@H]3[C@H](O)C[C@@H]4C[C@@H](OCCNC(=O)[C@@H](C)NC(=O)[C@@H](C)NC(=O)OCc5ccccc5)CC[C@]4(C)[C@H]3C[C@H](O)[C@]12C [Example 122, Z-D-Ala-D-Ala-NH--(CH2)2 --GS--OH] |  |  |  | 19 | 237 | 107 |
| CC(C)c1nc(-c2ccccc2)cc(-c2ccc(F)cc2)c1/C=C/[C@@H]1C[C@@H](O)CC(=O)O1 [Example 125, reference compound] |  |  |  | 12 | 104 | 46 |
| C[C@H](CCC(=O)NCCS(=O)(=O)O)[C@H]1CC[C@H]2[C@@H]3[C@H](O)C[C@@H]4C[C@H](O)CC[C@]4(C)[C@H]3CC[C@]12C [Taurochenodeoxycholate, reference compound] |  |  |  |  |  | 23 |

Source: patent publication US5462933A, “Modified bile acid conjugates, and their use as pharmaceuticals” (Hoechst Aktiengesellschaft, priority 1989, dated 1995)
